According to article PMC6627486, “Ipomoeassin F Binds Sec61α to Inhibit Protein Translocation” (Journal of the American Chemical Society, 2019):

How the values were obtained:
[1] = test system: secNLuc-ATZ secretion in U2-OS cells; assay: U2-OS secNLuc-ATZ secretion assay; type: cell-based; settings: Homo sapiens, U2OS, 24 h, read-out: secNLuc-ATZ secretion inhibition EC50
Experimental: The secNLuc-ATZ assay has been described elsewhere.18 Briefly, U2-OS cells stably expressing secNLuc-ATZ were cultured in McCoy’s 5A supplemented with 10% bovine growth serum (Hyclone SH30540.03), 50 units/mL penicillin, and 50 µg/mL streptomycin and plated into 1536-well black, clear-bottom treatment plates (Aurora Microplates #ABI121000A) at 1200 cells/well in 5 µL volume using a Multidrop Combi dispenser (ThermoFisher). Cells were returned to 37 °C for 1 h to adhere and compound or vehicle control was added to wells using a 1536-well pin-tool transfer device (Wako Automation, San Diego). Cells were incubated for 24 h and secNLuc-ATZ-containing media was transferred using an ATS-100 acoustic dispenser (EDC Biosystems, Fremont, CA) from the treatment plate to a white, solid-bottom 1536-well recipient plate (Greiner Bio One #789175-F) containing 3 µL/well of 1X PBS. […]
Cells were incubated at 37 °C for 24 h and secreted luciferase was detected by adding 1 µL of coelenterazine substrate to each well using a BioRAPTR FRD workstation. […]
Luminescence was measured using a ViewLux microplate imager equipped with clear filters.
For cell viability assays, cells were cultured, plated, and treated with test compounds as outlined for the secretion assays. 48 h after treatment, viability was assessed using a CellTiter-Glo assay by adding 3

[2] = molecular target: T1, Sec61-mediated protein translocation (Canis lupus familiaris, UniProt P38377); assay: In vitro translation and Sec61-dependent translocation into ER microsomes; type: biochemical, canine
T1 construct: ER microsomes derived from canine pancreas; from tissue; host or cells: canine pancreas ER microsomes (nuclease-treated)
T1 sequence (P38377 whole entry): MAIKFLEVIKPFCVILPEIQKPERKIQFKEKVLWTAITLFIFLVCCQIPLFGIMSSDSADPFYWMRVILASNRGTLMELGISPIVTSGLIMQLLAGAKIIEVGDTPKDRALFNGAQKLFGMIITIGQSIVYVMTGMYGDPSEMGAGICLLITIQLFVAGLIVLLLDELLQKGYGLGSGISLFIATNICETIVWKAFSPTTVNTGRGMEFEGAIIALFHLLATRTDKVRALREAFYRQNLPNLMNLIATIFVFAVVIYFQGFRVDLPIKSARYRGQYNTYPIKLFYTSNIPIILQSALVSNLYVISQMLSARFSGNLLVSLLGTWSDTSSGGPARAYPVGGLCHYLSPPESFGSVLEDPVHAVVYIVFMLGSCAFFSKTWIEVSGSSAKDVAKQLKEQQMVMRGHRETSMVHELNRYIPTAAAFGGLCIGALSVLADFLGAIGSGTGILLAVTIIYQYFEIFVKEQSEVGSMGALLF
T1 sequence (P60467 whole entry, further chain): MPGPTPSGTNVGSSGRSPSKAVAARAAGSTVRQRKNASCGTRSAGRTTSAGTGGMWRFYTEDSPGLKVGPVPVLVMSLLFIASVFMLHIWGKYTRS
T1 sequence (P60058 whole entry, further chain): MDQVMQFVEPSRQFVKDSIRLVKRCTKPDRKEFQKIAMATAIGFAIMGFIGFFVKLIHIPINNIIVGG
Source text: (§1) In Vitro Membrane Translocation Assays.
(§2) Unless otherwise stated, all cDNAs are of human origin and as previously described: CytB5OPG2,16 GypC,17 ppαF (Saccharomyces cerevisiae),16 ppcecAOPG2 (Hyalophora cecropia),16 PPL (Bos Taurus),16 Sec61βOPG216 and VCAM1.17 Ii encodes residues 17 to 232 of the short form of human HLA class II histocompatibility antigen gamma chain (Ii; P04232, isoform 2). Linear DNA templates were generated by PCR and transcribed into RNA using T7 or SP6 polymerase (Promega).
(§3) In vitro translation and translocation into ER microsomes
(§4) Translation reactions (20 μL) were performed in nuclease-treated rabbit reticulocyte lysate (Promega) in the presence of EasyTag EXPRESS 35S Protein Labelling Mix containing [35S] methionine (Perkin Elmer) (0.533 MBq; 30.15 TBq/mmol). Amino acids minus methionine (Promega) were added to 25 µM each, […]
(§5) equivalent volume of DMSO, and nuclease-treated ER microsomes (from stock with OD280 = 44/mL) were added to 6.5% (v/v). Lastly, 10% volume of in vitro transcribed mRNA (from 200-1000 ng/μL stocks) encoding the relevant precursor protein was added and translation reactions performed for 20 min at 30°C. Following incubation with 0.1 mM puromycin for 5 min at 30°C to ensure translational termination and ribosome release, membrane-associated fractions were isolated by centrifugation through an 80 μL high-salt cushion (0.75 M sucrose, 0.5 M KOAc, 5 mM Mg(OAc)2, 50 mM Hepes-KOH, pH 7.9) at 100,000 x g for 10 min at 4°C in a TLA100 rotor (Beckmann). Membrane pellets were suspended directly in SDS (sodium dodecyl sulphate) sample buffer (0.02% bromophenol blue, 62.5 mM, 4% (w/v) SDS, 10% (v/v) glycerol, pH 7.6, 1 M dithiothreitol) and, where indicated, treated with 1,000 U of Endoglycosidase H (New England Biolabs) for 30 min at 37°C prior to analysis. All samples were denatured for 10 min at 70°C prior to resolution by SDS-PAGE (12% or 16% polyacrylamide gels, 120 V, 120 min), gels were fixed (20% MeOH, 10% AcOH) for 5 min, dried (BioRad gel dryer) for 2 h at 65°C and, following exposure to a phosphorimaging plate for 24-72 h, radiolabelled products were visualised using a Typhoon FLA-7000 (GE Healthcare).
(§6) Quantitative analysis of Ii membrane insertion was performed using AIDA v.5.0 (Raytest Isotopenmeβgeräte) whereby the ratio of the signal intensity for the 2Gly/0Gly forms was used as a read-out to estimate efficiency of integration into the ER membrane. This value was then expressed relative to the matched DMSO control in order to derive the mean relative ER insertion from three independent experiments (n=3). Statistical significance of the effectiveness of Ipom-F analogues (RM one-way ANOVA) was determined using Tukey’s multiple comparisons test. IC50 value estimates were determined using non-linear regression to fit data to a curve of variable slope (four parameters) using the least squares fitting method in which the bottom and top plateaus of the curve were defined as 0% and 100% respectively. The differences between the estimated IC50 values for the three compounds analysed were statistically significant (****) according to the extra-sum-of-squares F test. Statistical analyses and IC50 estimates were performed using Prism 7.0d (GraphPad) with statistical significance given as n.s., non - significant and ****, P < 0.0001.
(§7) U2-OS secNLuc-ATZ Secretion and Cell Viability Assays

[3] = test system: Sec61-mediated protein translocation; assay: as above; type: biochemical, canine
Source text: as §1, §2, §3, §4, §5, §6, §7

`C/C=C(\C)C(=O)O[C@@H]1[C@@H](O)[C@@H]2O[C@H]3[C@H](O[C@@H](CCCCC)CCCCCCC(=O)CCC(=O)OC[C@@H](O2)[C@H]1OC(=O)/C=C/c1ccccc1)O[C@H](C)[C@H](OC(C)=O)[C@@H]3O` [ipomoeassin F] was tested, and the EC50 [1] was about 0.005 µM, the IC50 [2] was about 0.05 µM and the “membrane insertion of type I and type II integral membrane proteins (VCAM1, Ii)” value [2] was “potently inhibits”. For the same molecule, the “translocation of short secretory protein prepro-cecropin A” value [2] was “only a marginal impact”, the “translocation of secretory proteins bovine preprolactin and yeast prepro-alpha-factor” value ([2]; 1 μM compound) was “almost completely prevented” and the “inhibition of Ii membrane insertion” value ([2]; type II membrane protein Ii, ER microsomes) was “strongly inhibit membrane insertion”. The “membrane insertion of type III integral membrane protein glycophorin C” value [3] was “no effect” and the “in vitro integration of tail-anchored proteins (Sec61βOPG2, Cytb5OPG2)” value ([3]; Sec61-independent control substrates) was “unaffected”.
